# Laboratory results reported in patent US10071158B2, “Combination of the application of antibodies for immunostimulation together with glucocorticoids” (Lindis Biotech GmbH, priority 2005, dated 2018).
# “Also recorded” adds a separate entry of the source.
# Key:
# [1] = test system: mononuclear cells of the peripheral blood (PBMC); assay: Release of IL-6 by PBMC after stimulation with anti-EpCAM x anti-CD3 antibody without/with HCT8 tumour cells (ELISA); type: cell-based, human; details: antibody-stimulated PBMC with HCT8; dexamethasone 0.01 μg/ml to 10 μg/ml (FIG. 1B)
# Procedure: FIG. 1A represents the release of IL-6, the IL-6 concentration in pg/ml being plotted on the y-axis. On the x-axis the respective stimulation of the PBMC has been plotted, with unstimulated PBMC serving by way of control (bar “PBMC”). In this connection, E signifies in each instance the stimulation with 100 μg/ml trifunctional bispecific antibody with the specificity anti-EpCAM x anti-CD3. […] In the experiment according to FIG. 1A the release of IL-6 from PBMC is investigated after stimulation without contact with EpCAM-positive tumour cells (=target cells). The stimulation without EpCAM-positive tumour cells corresponds to the non-specific release of cytokine, which is independent of the antigen binding. Release is accordingly effected systemically by the totality of the PBMC.
# This procedure of stimulation with EpCAM-positive tumour cells corresponds to the situation of the release of IL-6 by the PBMC at the site of antigen binding. […] In the clinical use of the immunostimulating antibody together with the glucocorticoid the high quantity of IL-6 is released only by a few PBMC that are directly involved in the specific action. […]
# (§1) FIGS. 14 to 16 show graphic representations of the results of the release of various cytokines in tumour patients by PBMC. […] The release of the same cytokines was measured likewise. […]
# [2] = test system: mononuclear cells of the peripheral blood (PBMC); assay: Release of IFN-γ by PBMC after stimulation with anti-EpCAM x anti-CD3 antibody without/with HCT8 tumour cells (ELISA); type: cell-based, human; details: dexamethasone 0.1 μg/ml
# Procedure: Mononuclear cells were extracted from the peripheral blood of a healthy volunteer by means of centrifugation over Ficoll (density 1.068 g/cm^3). To this end, venous heparinised blood was stratified over Ficoll and centrifuged at 2000 rpm for 20 min. The cell layer located above the Ficoll was pipetted off after centrifugation and was washed with PBS.
# For the purpose of stimulation, the PBMC were used at a concentration of 1×10^6/ml. The stimulation of the PBMC was effected with an intact trifunctional bispecific antibody either of the specificity anti-EpCAM x anti-CD3 at a concentration of 100 μg/ml or of the specificity anti-HER2/neu x anti-CD3 at a concentration of 1 mg/ml. The stimulation was carried out for 24 h by incubation at 37 ° C. The stimulation was effected in each instance without tumour cells or in the presence of 5×10^4 HCT8 tumour cells (relative to ATCC; EpCAM-positive) per ml.
# After the stimulation the determination of the concentrations of the cytokines IL-6, IL-10, TNF-α and IFN-γ was undertaken in the supernatant on plates with 24 recesses in each instance by means of an ELISA. In each instance duplicate measurements were carried out. The ELISAs were undertaken by means of standardised kits produced by R&D Systems, in accordance with the manufacturer's instructions.
# HCT8 tumour cells [3] = assay: Cytotoxicity assay with fluorescence-marked HCT8 tumour cells, PBMC of healthy test subjects and tumour patients (FIG. 10); type: cell-based, human
# Procedure: FIGS. 10A to 10C represent the mean values of the measurements carried out in respect of three healthy test subjects, whereas FIG. 10D represents the mean values of the measurements carried out in respect of six patients with gastrointestinal carcinoma. In the experiments a stimulation was effected with trifunctional bispecific antibodies with the specificity anti-EpCAM x anti-CD3 at various concentrations amounting to 10 ng/ml, 100 ng/ml and 1000 ng/ml. The respective concentration of the antibody that has been used is specified in FIGS. 10A to 10D. The concentration of the PBMC amounted to 10^6 cells/ml, that of the HCT8 cells amounted to 5×10^4 cells/ml. […] On the y-axis the percentage cytotoxicity has been plotted; on the x-axis the respective experimental assay of the PBMC has been plotted, with unstimulated PBMC serving by way of control (PBMC).
# [4] = after i.v. injection; cited from earlier work
# HCT8 tumour cells [5] = assay: Two-hour cytotoxicity assay with fluorescence-marked (BCECF-AM) HCT8 tumour cells, stimulated PBMC (FIG. 5); type: cell-based, human; design: effect on specific percentage cytotoxicity of stimulated PBMC: dose or concentration left out as unconfirmed
# Procedure: FIG. 5A-5D represents in diagrams the results of the measurement of the specific percentage cytotoxicity, which was determined in a two-hour cytotoxicity assay with fluorescence-marked HCT8 tumour cells. In FIGS. 5A to 5D the specific percentage cytotoxicity against HCT8 has been plotted as a function of the ratio of effector cells to target cells (E/T), the cytotoxicity test having been carried out in each instance in the case of a ratio of the effector cells to the target cells of 40:1, 20:1, 10:1, 5:1 and 2.5:1.
# With the aid of a cytotoxicity test the influence of glucocorticoid on the T-cell toxicity was investigated. The extraction of the PBMC and the stimulation thereof were carried out in accordance with the above Example 1.
# The measurement of cytotoxicity was undertaken with the aid of a fluorescence test using the dyestuff BCECF-AM. The measurement was undertaken by means of 2 h release technology corresponding to the procedure in Kolber et al. (1988) J. Immunol. Meth. 108: 255-264.
# [6] = test system: mononuclear cells of the peripheral blood (PBMC); assay: Release of TNF-α by PBMC after stimulation with anti-EpCAM x anti-CD3 antibody without/with HCT8 tumour cells (ELISA); type: cell-based, human; details: without HCT8; dexamethasone 0.1 μg/ml (FIG. 2C)
# Text: FIG. 2A-2C represents in diagrams the results of the release of tumour necrosis factor α (TNF-α) after stimulation with trifunctional bispecific antibody of the specificity anti-EpCAM x anti-CD3 without and in the presence of EpCAM-positive tumour cells.
# This stimulation without target cells corresponds, in turn, as already stated with respect to FIG. 1A, to the systemic, non-specific release of cytokine, which arises independently of the antibody/antigen interaction. This systemic release of TNF-α is effected by the totality of the PBMC population. […]
# FIG. 2B represents, in a diagram similar to FIG. 1B, the release of TNF-α from PBMC after antibody stimulation with contact with EpCAM-positive tumour cells, the TNF-α concentration in pg/ml being plotted, here too, on the y-axis. […] In the case of stimulation with contact with EpCAM-positive tumour cells, in comparison with the stimulation without contact with target cells, in connection with the release of TNF-α absolutely higher values are also measured, which, however, as already stated above with respect to the release of IL-6 in connection with FIG. 1B, has its origin in the specific immunological action at the site of the antibody/antigen interaction. […]
# as §1
smiles,measurement,setting,value
C[C@@H]1C[C@H]2[C@@H]3CCC4=CC(=O)C=C[C@]4(C)[C@@]3(F)[C@@H](O)C[C@]2(C)[C@@]1(O)C(=O)CO [dexamethasone],release of IL-6 in the supernatant,[1],above 5000 pg/ml
same,release of IFN-γ,[2],under 3000 pg/ml
same,inhibition of the specific percentage cytotoxicity,"HCT8 tumour cells [3]; antibody 10 ng/ml, no contact with HCT8, dexamethasone, healthy test subjects",about 5 percentage points
same,inhibition of the specific percentage cytotoxicity,"HCT8 tumour cells [3]; antibody 10 ng/ml, with HCT8, dexamethasone up to 1.0, healthy test subjects (FIG. 10A)",approximately 15 percentage points
same,specific percentage cytotoxicity,"HCT8 tumour cells [3]; antibody 10 ng/ml, with HCT8, with dexamethasone, healthy test subjects",~41%
same,inhibition of the cytotoxicity,"HCT8 tumour cells [3]; antibody 100 ng/ml, dexamethasone, patients with gastrointestinal tumours (FIG. 10D)",approximately 27 percentage points
same,inhibition of the specific percentage cytotoxicity,"HCT8 tumour cells [3]; antibody 100 ng/ml, with HCT8, dexamethasone up to 1.0, healthy test subjects (FIG. 10B)",about 30 percentage points
same,specific percentage cytotoxicity,"HCT8 tumour cells [3]; antibody 100 ng/ml, with HCT8, with dexamethasone, healthy test subjects",~50%
same,cytotoxicity,"HCT8 tumour cells [3]; antibody 100 ng/ml, with dexamethasone, patients with gastrointestinal tumours",~51%
same,inhibition of the cytotoxicity,"HCT8 tumour cells [3]; antibody 100 ng/ml, without contact with HCT8, dexamethasone, healthy test subjects",approximately 10 percentage points
same,inhibition of the specific percentage cytotoxicity,"HCT8 tumour cells [3]; antibody 1000 ng/ml, with HCT8, dexamethasone up to 1.0, healthy test subjects (FIG. 10C)",about 20 percentage points
same,specific percentage cytotoxicity,"HCT8 tumour cells [3]; antibody 1000 ng/ml, with HCT8, with dexamethasone, healthy test subjects",~67%
same,inhibition of the cytotoxicity,"HCT8 tumour cells [3]; antibody 1000 ng/ml, without contact with HCT8, dexamethasone, healthy test subjects",about 2 percentage points
same,maximum plasma concentrations attained,[4],within a few minutes
same,effect on the cytotoxicity of stimulated PBMC,HCT8 tumour cells [5]; dexamethasone 0.01 μg/ml,no effect
same,percentage cytotoxicity,"HCT8 tumour cells [5]; dexamethasone 0.1 μg/ml to 10 μg/ml, stimulation in the presence of HCT8, E/T 40:1",maintained constant at a high level
same,inhibition of the specific percentage cytotoxicity,"HCT8 tumour cells [5]; dexamethasone 0.1 μg/ml, with or without HCT8 during stimulation (FIG. 5B)",about 50 percentage points
same,inhibition of the percentage specific cytotoxicity,"HCT8 tumour cells [5]; dexamethasone 1 μg/ml, E/T 20:1, stimulation in the absence of HCT8",distinctly greater inhibition
same,inhibition of the specific percentage cytotoxicity compared with 0.1 μg/ml,"HCT8 tumour cells [5]; dexamethasone 1 μg/ml, stimulation in the presence of HCT8 (FIG. 5C)",roughly the same level
same,cytotoxicity values in relation to lower dexamethasone concentrations,"HCT8 tumour cells [5]; dexamethasone 10 μg/ml, stimulation in the absence of HCT8",declined further
same,percentage cytotoxicity,"HCT8 tumour cells [5]; dexamethasone 10 μg/ml, stimulation in the presence of HCT8, E/T 20:1 (FIG. 5D)",30%
same,specific percentage cytotoxicity,"HCT8 tumour cells [5]; dexamethasone 10 μg/ml, stimulation in the presence of HCT8, E/T twice as large (40:1)",about 60%
same,effect on specific percentage cytotoxicity of stimulated PBMC,HCT8 tumour cells [5]; dexamethasone (FIG. 5A),no effect; also recorded: no inhibition
same,effect on cytotoxicity,"HCT8 tumour cells [5]; dexamethasone starting from 0.1 μg/ml, independent of HCT8 during stimulation",significant reducing; also recorded: distinct reducing
same,percentage cytotoxicity as a function of dexamethasone concentration,HCT8 tumour cells [5]; stimulation of PBMC without HCT8,declines further
same,"non-specific secretion of TNF-α, % of value with antibody without dexamethasone",[6],~20%
